Bridge positions count the residues as written; N and C are the ends. Peptide text beside a SMILES is read from it.

Here are results for two molecules from publication PMC6081437, “The potency of the broad spectrum bacteriocin, bactofencin A, against staphylococci is highly dependent on primary structure, N-terminal charge and disulphide formation” (Scientific Reports, 2018).

One experiment has as its system Listeria spp. The following applies: cell free supernatants of L plantarum ST31 against L. innocua and L. monocytogenes; cited from earlier work. From the text: Todorov et al. (1999) previously described plantaricin ST31, a bacteriocin with an amino acid sequence determined to be KRKKHRXQVYNNGMPTGMYR, produced by a sourdough isolate Lactobacillus plantarum ST31, with a reported mass of 2755 + /− 0.3 Da[20]. Substitution of Cys for X results in a peptide with a mass of 2468 Da. However if tryptophan and cysteine, the C terminal amino acids of bactofencin A are included, a mass of 2757 Da is obtained and subsequent oxidation of cysteines gives the published mass, 2755 Da.

In the next experiment the test system is S. aureus DPC5246. In kind it is cell-based, Staphylococcus aureus. The following applies: agar well diffusion; 50 µl aliquots of 1 in 4 serial dilutions from 1000 µM in 50 mM sodium phosphate buffer pH 6.8; 37 °C; lowest concentration giving a zone of inhibition; triplicate; values rounded to whole numbers. In outline: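 Agar well diffusion assay: peptides in 50 mM sodium phosphate pH 6.8, 1-in-4 dilutions from 1000 µM stock (250 to 0.24 µM) applied to S. aureus DPC5246 indicator plates at 37 °C. MIC is the lowest concentration giving an inhibition zone, in triplicate; concentrations rounded to whole numbers.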
On the technique in general: A growth-free zone around the sample is the usual read-out of agar diffusion tests.

The subject of a further experiment is Listeria innocua DPC3572. In kind it is cell-based. The following applies: L. innocua DPC3572, agar well diffusion. Here is the method: (§1) Peptides were resuspended at 1000 µM in 50 mM sodium phosphate buffer pH 6.8 and checked for purity by MALDI-TOF-MS. Peptides were serially diluted 1 in 4 to give a dilution series of 250, 62.50, 15.63, 3.91, 0.98 and 0.24 µM and assayed by the agar well diffusion assay described by Ryan et al.[19]. Briefly, 50 µl aliquots of each peptide concentration were plated on a S. aureus DPC5246 indicator plate and the plate incubated at 37 °C. Peptide activity (Minimum Inhibitory Concentration (MIC)) was taken as the lowest concentration of peptide to give a zone of inhibition. All assays were performed in triplicate. The dilution series values were rounded to the nearest whole number to give 1000, 250, 63, 16, 4, 1 and 0.25 µM and data is colour coded for ease of interpretation.
(§2) Bactofencin R8Q and bactofencin R8K were synthesised as described above and their activity compared to bactofencin A against S. aureus DPC5246, Listeria innocua DPC3572 and L. monocytogenes ATCC 23074.

Experiment [1] has as its system L. monocytogenes ATCC 23074. The format is cell-based, Listeria monocytogenes. Particulars: L. monocytogenes ATCC 23074, agar well diffusion. Here is the method: as §1, §2

For the molecule “KRKKHRXQVYNNGMPTGMYR [plantaricin ST31, bacteriocin produced by sourdough isolate Lactobacillus plantarum ST31 (Todorov et al. 1999); likely natural R8Q variant of bactofencin A]”, the “activity against Listeria spp., in words” value in the experiment on Listeria spp. is “inactive”.
For the molecule `CSCC[C@@H]1NC(=O)CNC(=O)[C@H]([C@@H](C)O)NC(=O)[C@@H]2CCCN2C(=O)[C@H](CCSC)NC(=O)CNC(=O)[C@H](CC(N)=O)NC(=O)[C@H](CC(N)=O)NC(=O)[C@H](Cc2ccc(O)cc2)NC(=O)[C@H](C(C)C)NC(=O)[C@H](CCC(N)=O)NC(=O)[C@@H](NC(=O)[C@H](CCCNC(=N)N)NC(=O)[C@H](Cc2c[nH]cn2)NC(=O)[C@H](CCCCN)NC(=O)[C@H](CCCCN)NC(=O)[C@H](CCCNC(=N)N)NC(=O)[C@@H](N)CCCCN)CSSC[C@@H](C(=O)O)NC(=O)[C@H](Cc2c[nH]c3ccccc23)NC(=O)[C@H](CCCNC(=N)N)NC(=O)[C@H](Cc2ccc(O)cc2)NC1=O` [bactofencin R8Q] (H-KRKKHRCQVYNNGMPTGMYRWC-OH; disulfide 7-22; N-terminus assumed), the “Activity (Minimum Inhibitory Concentration, MIC)” value in the experiment with S. aureus DPC5246 is 1 µM. Also, the “Activity (MIC)” value (with Listeria innocua DPC3572; in experiment [1]) was 250 µM each time.
